Laboratory results reported in patent US20220265817A1, “THERAPEUTIC COMPOSITIONS AND METHODS FOR TREATING HEPATITIS B” (priority 2017, published 2022).

What was measured:
[1] = tested on: HBsAg secretion in HepG2.2.15 cells; assay: HepG2.2.15 cell culture system, HBsAg quantitation by CLIA, MacSynergy II; format: cell-based, human hepatoblastoma HepG2 cells; settings: for Additive % Inhibition versus negative control: Trial 3, n = 4, SIRNA-NP μM: 0.0025, 0.00079, 0.00025, 7.9E−05, 2.5E−05, 0
Method: In vitro combination studies were conducted using the method of Prichard and Shipman (Prichard M N, and Shipman C Jr., Antiviral Research, 1990, 14 (4-5), 181-205; and Prichard M N, et. al., MacSynergy II). The HepG2.2.15 cell culture system is a cell line derived from human hepatoblastoma HepG2 cells that have been stably transfected with the adw2-subtype HBV genome as previously explained in Sells et al. (Proc. Natl. Acad. Sci. U. S. A, 1987. Vol 84:1005-1009). HepG2.2.15 cells secrete Dane-like viral particles, produce HBV DNA, and also produce the viral proteins, hepatitis B e antigen (HBeAg) and hepatitis B surface antigen (HBsAg).
To test the compound combinations, HepG2.2.15 (30,000 cells/well) were plated in 96 well tissue-culture treated microtiter plates in RPMI+L-Glutamine medium supplemented with 1% penicillin-streptomycin, 20 μg/mL geneticin (G418), 10% fetal bovine serum, and incubated in a humidified incubator at 37° C. and 5% CO2 overnight. […] […] The microtiter cell plates were incubated for a duration of 6 days in a humidified incubator at 37° C. and 5% CO2.
(§1) Untreated positive control samples (0.5% DMSO in media) were included on each plate in multiple wells. Following a 6 day-incubation, media was removed from treated cells for use in an HBsAg chemiluminescence immunoassay (CLIA) (Autobio Diagnostics, Cat No. CL0310-2). An HBsAg standard curve was generated to verify that the levels of HBsAg quantification were within the detection limits of the assay. The remaining inhibitor-treated cells were assessed for cytotoxicity by determination of the intracellular adenosine triphosphate (ATP) using a Cell-Titer Glo reagent (Promega) as per manufacturers instructions and by microscopic analysis of the cells throughout the duration of inhibitor treatment. Cell viability was calculated as a percentage of the untreated positive control wells.
The plates were read using an EnVision multimode plate reader (PerkinElmer Model 2104). […] The RLU data from the single compound treated cells were analyzed using XL-Fit module in Microsoft Excel to determine EC50 values using a 4-parameter curve fitting algorithm.

HepG2.2.15 cells = assay: HepG2.2.15 cytotoxicity (intracellular ATP, Cell-Titer Glo; microscopy); format: cell-based, human hepatoblastoma HepG2 cells; settings: Trial 3, SIRNA-NP μM: 0.0025, 0.00079, 0.00025, 7.9E−05, 2.5E−05, 0
Method: as §1

hepatitis B virus (HBV) [2] = assay: Mouse model of HBV (AAV1.2 tail vein injection), serum HBsAg enzyme immunoassay; format: in vivo, C57/B16 mice; settings: Compound 20 3.0 mg/kg oral twice daily Days 0-28, HBV siRNA (LNP) 0.3 mg/kg IV Day 0, n=5 (n=4 vehicle + siRNA)
Method: (§2) This viral vector contains a 1.2-fold overlength copy of the HBV genome and expresses HBV surface antigen (HBsAg) amongst other HBV products. Serum HBsAg expression in mice was monitored using an enzyme immunoassay. Animals were sorted (randomized) into groups based on serum HBsAg levels such that a) all animals were confirmed to express HBsAg and b) HBsAg group means were similar to each other prior to initiation of treatments.
Animals were treated with Compound 20 as follows: Starting on Day 0, a 3.0 mg/kg dosage of Compound 20 was administered orally to animals on a twice-daily frequency for a total of 56 doses between Days 0 and 28. Compound 20 was dissolved in a co-solvent formation for administration. Negative control animals were administered either the co-solvent formulation alone, or were not treated with any test article. Animals were treated with lipid nanoparticle (LNP)-encapsulated HBV-targeting siRNAs as follows: On Day 0, an amount of test article equivalent to 0.3 mg/kg siRNA was administered intravenously. The HBsAg expression levels for each treatment were compared against the Day 0 (pre-dose) values for that group.
The effect of these treatments was determined by collecting blood on Days 0 (pre-treatment), 7, 14, and 28 and analyzing it for serum HBsAg content.

hepatitis B virus (HBV) [3] = assay: Mouse model of HBV (pAAV/HBV1.2 hydrodynamic injection), serum HBsAg enzyme immunoassay; format: in vivo, C3H/HeN mice; settings: HBV siRNA 1 mg/kg IV Days 0, 7, 14, poly(I:C) 20 μg HDI Day 0, mean ± SEM
From the text: A mouse model of hepatitis B virus (HBV) was used to assess the anti-HBV effects of an immune stimulant and HBV-targeting siRNAs, both as independent treatments and in combination with each other.
as §2, with “This plasmid carries” for “This viral vector contains”, “of a” for “of the”
Animals were treated with immune stimulant as follows: On Day 0, 20 micrograms of high molecular weight polyinosinic:polycytidylic acid (poly(I:C)) was administered via HDI. Animals were treated with lipid nanoparticle (LNP)-encapsulated HBV-targeting siRNAs as follows: On each of Days 0, 7 & 14, an amount of test article equivalent to 1 mg/kg siRNA was administered intravenously. A negative control group was included as the HBsAg expression level is not completely stable in this mouse model of HBV; the absolute concentration of serum HBsAg generally declines over time in individual animals.
The effect of the treatments was determined by collecting a small amount of blood on Days 0 (pre-treatment), 3, 7, 14 & 21 and analyzing it for serum HBsAg content. Samples were diluted as appropriate to generate values within the assay range of quantitation where possible. Individual values falling below the lower limit of quantitation (LLOQ) were set as one-half the LLOQ.

In the case of `COCCCOc1cc2c(cc1OC)-c1cc(=O)c(C(=O)O)cn1[C@H](C(C)C)C2` [Compound 5], the EC50 ([1]; HBsAg by CLIA, trial by row: r8 1, r9 2, r10 3, read-out: Compound 5 EC50) is reported as 2 nM, the “Additive % Inhibition versus negative control” value ([1]; Compound 5 0.0001 μM) is reported as 69.99% and the “Additive % Inhibition versus negative control” value ([1]; Compound 5 0.000316 μM) is reported as 82.39%. The “Additive % Inhibition versus negative control” value ([1]; Compound 5 0.001 μM) was 89.01%, the “Additive % Inhibition versus negative control” value ([1]; Compound 5 0.00316 μM) was 90.26% and the “Additive % Inhibition versus negative control” value ([1]; Compound 5 0.1 μM) was 86.26%. For the same compound, the “Additive % Inhibition versus negative control” value ([1]; Compound 5 1.0E−05 μM) was 46.36%, the “Additive % Inhibition versus negative control” value ([1]; Compound 5 1.00E−06 μM) was 22.68% and the “Additive % Inhibition versus negative control” value ([1]; Compound 5 3.16E−06 μM) was 34.18%. For the same compound, the “Additive % Inhibition versus negative control” value ([1]; Compound 5 3.17E−05 μM) was 56.34%, the “Avg % Cell Viability vs control” value (HepG2.2.15 cells; Compound 5 0.0001 μM) was 128% and the “Avg % Cell Viability vs control” value (HepG2.2.15 cells; Compound 5 0.000316 μM) was 131%. The “Avg % Cell Viability vs control” value (HepG2.2.15 cells; Compound 5 0.001 μM) was 141%, the “Avg % Cell Viability vs control” value (HepG2.2.15 cells; Compound 5 0.00316 μM) was 127% and the “Avg % Cell Viability vs control” value (HepG2.2.15 cells; Compound 5 0.1 μM) was 99%. For the same compound, the “Avg % Cell Viability vs control” value (HepG2.2.15 cells; Compound 5 1.0E−05 μM) was 140%, the “Avg % Cell Viability vs control” value (HepG2.2.15 cells; Compound 5 1.00E−06 μM) was 131% and the “Avg % Cell Viability vs control” value (HepG2.2.15 cells; Compound 5 3.16E−06 μM) was 127%. For the same compound, the “Avg % Cell Viability vs control” value (HepG2.2.15 cells; Compound 5 3.17E−05 μM) was 131%.
`COCCCOc1cc2c(cc1OC)-c1cc(=O)c(C(=O)O)cn1[C@H](C(C)C)C2` [Compound 20] was tested, and the “serum HBsAg as percentage of pre-treatment baseline at Day 0 (mean ± SEM)” value (from here on “serum HBsAg as percentage … (mean ± SEM)”) (hepatitis B virus (HBV) [2]; D 7) was 7 ± 1%, the “serum HBsAg as percentage … (mean ± SEM)” value (hepatitis B virus (HBV) [2]; D 14) was 8 ± 2% and the “serum HBsAg as percentage … (mean ± SEM)” value (hepatitis B virus (HBV) [2]; D 21) was 7 ± 2%. The “serum HBsAg as percentage … (mean ± SEM)” value (hepatitis B virus (HBV) [2]; D 28) was 8 ± 2%.
For “polyinosinic:polycytidylic acid [Poly(I:C)]”, the “Serum HBsAg, % of individual pre-treatment baseline (Day 0)” value (“Serum HBsAg, %” for short) (hepatitis B virus (HBV) [3]; Day 3, n=4 or 5) was 6.1 ± 1.1%, the “Serum HBsAg, %” value (hepatitis B virus (HBV) [3]; Day 7) was 3.5 ± 1.1% and the “Serum HBsAg, %” value (hepatitis B virus (HBV) [3]; Day 14) was 3.9 ± 1.4%. For the same compound, the “Serum HBsAg, %” value (hepatitis B virus (HBV) [3]; Day 21) was 4.7 ± 2.3%.
